Source: ChEMBL document CHEMBL1201862, “PubChem BioAssay data set” (2004)
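Tested at 5 concentrations; 48 h exposure; 96-well plates; endpoints linearly interpolated, else capped at highest concentration. At the GI50, growth is halved.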 Active and inactive are the calls of the source. Cut-off read from the data, not from the text of the source: active = GI50 up to about 1.1 µM and inactive = higher.

Tests used:
Test in all cases: NCI-60 cell line screen, 48 h
UACC-257 = tested on: UACC-257
T47D = tested on: T47D
OVCAR-8 = tested on: OVCAR-8
SN12C = tested on: SN12C
NCI-H460 = tested on: NCI-H460
LOX IMVI = tested on: LOX IMVI
786-0 = tested on: 786-0
EKVX = tested on: EKVX
SNB-75 = tested on: SNB-75
ACHN = tested on: ACHN
MCF7 = tested on: MCF7
UO-31 = tested on: UO-31
RXF 393 = tested on: RXF 393
HOP-62 = tested on: HOP-62
SK-OV-3 = tested on: SK-OV-3
IGROV-1 = tested on: IGROV-1
MOLT-4 = tested on: MOLT-4
COLO 205 = tested on: COLO 205
SW-620 = tested on: SW-620
DU-145 = tested on: DU-145

Row | SMILES | GI50 (UACC-257) | GI50 (T47D) | GI50 (OVCAR-8) | GI50 (SN12C) | GI50 (NCI-H460) | GI50 (LOX IMVI) | GI50 (786-0) | GI50 (EKVX) | GI50 (SNB-75) | GI50 (ACHN) | GI50 (MCF7) | GI50 (UO-31) | GI50 (RXF 393) | GI50 (HOP-62) | GI50 (SK-OV-3) | GI50 (IGROV-1) | GI50 (MOLT-4) | GI50 (COLO 205) | GI50 (SW-620) | GI50 (DU-145)
1 | CC1(C)CC(=O)C2=C(C1)NC1=C(C(=O)CC(C)(C)C1)C2c1ccc([N+](=O)[O-])cc1 | > 100 µM (inactive) | > 100 µM (inactive) | > 100 µM (inactive) | > 100 µM (inactive) | > 100 µM (inactive) | > 100 µM (inactive) | > 100 µM (inactive) | > 100 µM (inactive) | 16.7 µM (inactive) | > 100 µM (inactive) | > 100 µM (inactive) | > 100 µM (inactive) | > 100 µM (inactive) | > 100 µM (inactive) | > 100 µM (inactive) | > 100 µM (inactive) | > 100 µM (inactive) | > 100 µM (inactive) | > 100 µM (inactive) | > 100 µM (inactive)
2 | CC(C)(C)OC(=O)N(O)[C@@H]1C=C[C@H](n2cnc3c(N)ncnc32)C1 | > 100 µM (inactive) | > 100 µM (inactive) | > 100 µM (inactive) | > 100 µM (inactive) | > 100 µM (inactive) | > 100 µM (inactive) | > 100 µM (inactive) | > 100 µM (inactive) | 33.9 µM (inactive) | > 100 µM (inactive) | > 100 µM (inactive) | > 100 µM (inactive) | > 100 µM (inactive) | 43 µM (inactive) | > 100 µM (inactive) | 59 µM (inactive) | > 100 µM (inactive) | > 100 µM (inactive) | > 100 µM (inactive) | > 100 µM (inactive)
3 | O=Cc1cc2c(s1)C(=O)c1sccc1C2=O | 0.345 µM (active) | 2.28 µM (inactive) | 0.338 µM (active) | 0.35 µM (active) | 1.32 µM (inactive) | 0.0376 µM (active) | 1.03 µM (active) | 1.61 µM (inactive) | 0.19 µM (active) | 0.585 µM (active) | 0.564 µM (active) | 0.411 µM (active) | 0.337 µM (active) | 1.82 µM (inactive) | 2.15 µM (inactive) | 1.49 µM (inactive) | 1.23 µM (inactive) | 2.21 µM (inactive) | 0.257 µM (active) | 0.18 µM (active)
4 | CCCCCCNC(=O)CCC(NC(=O)c1ccc(N(C)Cc2cnc3nc(N)nc(N)c3n2)cc1)C(=O)NCCCCCC (stereo not given) | 37.1 µM (inactive) | > 100 µM (inactive) | > 100 µM (inactive) | > 100 µM (inactive) | 47.2 µM (inactive) | 12.4 µM (inactive) | > 100 µM (inactive) | 37.4 µM (inactive) | > 100 µM (inactive) | > 100 µM (inactive) | 18.3 µM (inactive) | > 100 µM (inactive) | 39.4 µM (inactive) | > 100 µM (inactive) | 17.7 µM (inactive) | 16.2 µM (inactive) | > 100 µM (inactive) | > 100 µM (inactive) | > 100 µM (inactive) | 89.3 µM (inactive)
